Consider one molecule from US20140066385A1, “METHOD FOR TREATING CANCER BY COMBINED USE OF DRUGS” (Astellas Pharma Inc., priority 2011, published 2014).

Assay [1] deals with renal ischemia/reperfusion injury. The note with it: reported in Non-Patent Documents 3 and 4; cited from earlier work.
In assay [2] the test system is chronic rejection, rat aorta transplantation. The note with it: reported in Non-Patent Document 2; cited from earlier work.
Assay [3] relates to Human lung cancer-derived Calu 6 (HTB-56). As to the kind of experiment: Example 1: anti-tumor effect of FK330 alone or combined with chemotherapeutic agents in Calu-6 tumor-bearing nude mice. Type of assay: in vivo. The text has this: A free-form dihydrate of FK330 was used. Hereinafter, the amount of FK330 administered is expressed in weight of the dihydrate. A docetaxel hydrate injectable preparation (Taxotere (trademark), for intravenous infusion) was purchased from Sanofi-Aventis SA, and was used as docetaxel. A paclitaxel injectable preparation (paclitaxel injection liquid “Sawai”) was purchased from Sawai Pharmaceutical Co., Ltd., and was used as paclitaxel. Irinotecan hydrochloride (Topotesin (trade name) injection) was purchased from Daiichi Sankyo Co., Ltd., and was used as irinotecan. Gemcitabine hydrochloride for injection (Gemzar (trade name) injection) was purchased from Eli Lilly Japan K.K., and was used as gemcitabine. Doxorubicin hydrochloride for injection (Adriacin (trade name) Injection 10) was purchased from Kyowa Hakko Kogyo Co., Ltd., and was used as doxorubicin. A carboplatin injection liquid (Paraplatin (trade name) injection liquid) was purchased from Bristol Myers Squibb Co., and was used as carboplatin.
FK330 was suspended (20 mg/mL) in a 0.5% aqueous methyl cellulose solution (0.5% MC). Docetaxel was prepared in the attached dissolution liquid at 4 mg/mL, and was diluted with physiological saline (Otsuka Pharmaceutical Group) to 1 mg/mL. Paclitaxel, irinotecan, gemcitabine, doxorubicin, and carboplatin were prepared with physiological saline for injection at the time of use at concentrations of 1 mg/mL, 3 mg/mL, 16 mg/mL, 1 mg/mL, and 6 mg/mL, respectively.
Human lung cancer-derived Calu 6 (HTB-56) was obtained from American Type Culture Collection (VA, USA). The cells were cultured under the conditions of 37° C. and 5% CO2 by using RPMI1640 medium containing 10% heat-inactivated fetal bovine serum (FBS). The cells were harvested with trypsin and were suspended in PBS at 6×10^7 cells/mL, and the suspension was mixed with an equal amount of Matrigel (trade name) Basement Membrane Matrix (manufactured by Becton Dickinson Co., Bedford, Mass., USA).
Five-week old male nude mice (CAnN Cg-Foxn1nu/CrlCrlj(nu/nu)) were purchased from Charles River Laboratories Japan, Inc. (Japan, Kanagawa). The animals were raised under specific pathogen-free (SPF) conditions throughout the test period by feeding standard feedstuff and drinking water. The cultured cells were subcutaneously inoculated into the dorsal region of the nude mice at a concentration of 3×10^6 cells/0.1 mL/mouse. Nude mice which had the tumor volumes (major axis×[minor axis]^2×0.52) ranging from 111.9 mm^3 to 369.3 mm^3 were assigned by using SAS to minimize the fluctuation in tumor volume between the groups and within the group.
The first day of administration was designated as Day 1, and observation was made until Day 29. The respective groups (n=5 or 6) were treated as follows. FK330 was orally gavaged (5 mL/kg) twice a day at an interval of 6 to 8 hours, and each of the chemotherapeutic agents was administered by intravenous bolus injection (10 mL/kg) through the tail vein.
FK330 single administration group: 100 mg/kg of FK330 was administered twice a day (bid) (200 mg/kg/day, administered every day from the initiation of experiment to the completion)
Docetaxel single administration group: Docetaxel 10 mg/kg/day (Day 1, 5 and 9)
Paclitaxel single administration group: Paclitaxel 10 mg/kg/day (Day 1 through 7)
Irinotecan single administration group: lrinotecan 30 mg/kg/day (Day 1 through 7)
Gemcitabine single administration group: Gemcitabine 160 mg/kg/day (Day 1, 4 and 7)
Doxorubicin single administration group: Doxorubicin 10 mg/kg/day (Day 1 and 8)
Carboplatin single administration group: Carboplatin 60 mg/kg/day (Day 1 and 2)
FK330 100 mg/kg bid+Docetaxel 10 mg/kg/day (Day 1, 5 and 9), n=6
FK330 100 mg/kg bid+Paclitaxel 10 mg/kg/day (Day 1 through 7), n=6
FK330 100 mg/kg bid+Irinotecan 30 mg/kg/day (Day 1 through 7), n=6
FK330 100 mg/kg bid+Gemcitabine 160 mg/kg/day (Day 1, 4 and 7), n=6
FK330 100 mg/kg bid+Doxorubicin 10 mg/kg/day (Day 1 and 8), n=6 […]

Turning to `O=C(/C=C/c1ccc(Cl)cc1)N[C@@H](Cc1ccccn1)C(=O)NCC(=O)N1CCC(Oc2cc(C(F)(F)F)ncn2)CC1` [FK330, N^2-[(2E)-3-(4-chlorophenyl)-2-propenoyl]-N-[2-oxo-2-(4-{[6-(trifluoromethyl)pyrimidin-4-yl]oxy}piperidin-1-yl)ethyl]-3-pyridin-2-yl-L-alaninamide], the “efficacy for monkey renal ischemia/reperfusion injury” value in assay [1] is “effective”. Also, the “efficacy in chronic rejection model for rat aorta transplantation” value in assay [2] is reported as “effective”. In addition, the “tumor volume reduction ratio compared with docetaxel-only group” value in assay [3] (Day 29, FK330 100 mg/kg bid p.o. + docetaxel 10 mg/kg/day i.v. (Day 1, 5 and 9), significant) came to 63.5%. Further, the “tumor volume reduction ratio compared with doxorubicin-only group” value in assay [3] (Day 29, FK330 100 mg/kg bid p.o. + doxorubicin 10 mg/kg/day i.v. (Day 1 and 8), not significant) is given as 33.5%. Also, the “tumor volume reduction ratio compared with irinotecan-only group” value in assay [3] (Day 29, FK330 100 mg/kg bid p.o. + irinotecan 30 mg/kg/day i.v. (Day 1 through 7), not significant) was determined as 30.8%. For the same molecule, the “tumor volume reduction ratio compared with paclitaxel-only group” value in assay [3] (Day 29, FK330 100 mg/kg bid p.o. + paclitaxel 10 mg/kg/day i.v. (Day 1 through 7), significant) worked out at 57.6%. The “effect of FK330 on the anti-tumor effect of carboplatin” value in assay [3] (FK330 100 mg/kg bid p.o. + carboplatin 60 mg/kg/day i.v. (Day 1 and 2)) is listed as “did not affect”. In addition, the “effect of FK330 on the anti-tumor effect of gemcitabine” value in assay [3] (FK330 100 mg/kg bid p.o. + gemcitabine 160 mg/kg/day i.v. (Day 1, 4 and 7)) is reported as “did not affect”. Further, the “anti-tumor effect when FK330 was used alone” value in assay [3] (FK330 100 mg/kg bid p.o. alone, every day, observation until Day 29) was “not recognized”.
